Experimental data reported in patent US9365511B2, “Biphenyl-ethyl-pyrrolidine derivatives as histamine H3 receptor modulators for the treatment of cognitive disorders” (Arena Pharmaceuticals, Inc., priority 2013, dated 2016).
“Also recorded” adds a separate entry of the source.

Legend:
human H3 receptor = human H3 receptor (Homo sapiens (Human), UniProt Q9Y5N1); test: Human H3 receptor HTRF cAMP assay; assay type: cell-based; settings: HEK293 cells expressing the human H3 receptor, forskolin 2 μM; read-out: IC50 H3R
Sequence of human H3 receptor (Q9Y5N1 whole entry): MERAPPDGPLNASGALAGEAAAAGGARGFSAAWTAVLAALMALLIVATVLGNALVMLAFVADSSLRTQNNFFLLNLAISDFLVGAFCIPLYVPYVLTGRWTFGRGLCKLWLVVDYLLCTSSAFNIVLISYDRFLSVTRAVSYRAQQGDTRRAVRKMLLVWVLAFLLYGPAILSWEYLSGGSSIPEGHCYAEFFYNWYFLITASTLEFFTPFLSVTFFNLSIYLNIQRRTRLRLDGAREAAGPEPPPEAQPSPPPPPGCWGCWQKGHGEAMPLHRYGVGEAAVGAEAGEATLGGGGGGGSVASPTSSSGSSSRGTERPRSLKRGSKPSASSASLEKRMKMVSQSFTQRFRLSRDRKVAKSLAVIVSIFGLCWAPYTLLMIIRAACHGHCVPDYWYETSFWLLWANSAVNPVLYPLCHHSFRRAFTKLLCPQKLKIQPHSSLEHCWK
From the text: Homogeneous time-resolved fluorescence assays (HTRF®, Cisbio) detect levels of cAMP in lysed cell preparations using a europium or terbium cryptate-labeled anti-cAMP antibody and fluorophore-labeled cAMP (cAMP-d2). In the absence of exogenous cAMP, the anti-cAMP antibody binds to cAMP-d2. Photoexcitation of the cryptate donor results in a combination of cryptate emission at 620 nm and fluorescence resonance energy transfer (FRET) from the cryptate to the acceptor d2 fluorophore, which then fluoresces at 665 nm. The 620/665 nm emission ratio is monitored. In the presence of exogenous cAMP, which competes with cAMP-d2 for binding to the anti-cAMP antibody, FRET is decreased and the […], providing a sensitive and accurate means to measure cAMP levels in biological assays.
Compounds of the present invention were evaluated using the human H3 receptor (H3R) HTRF cAMP assay. In this assay, HEK293 cells expressing the human H3 receptor were suspended in PBS containing 100 μM IBMX and plated into 384-well assay plates (Perkin Elmer Proxiplate 384-Plus; 15,000 cells per well; 5 μL plating volume) and allowed to equilibrate for an hour. Test compounds were serially diluted in 100% DMSO and then further diluted in PBS containing forskolin (2 μM). Test compounds (5 μL) were then added to the assay plate and the mixture was incubated for 1 hour. HTRF assay reagents (Cisbio, Dynamic 2 cAMP Kit), cAMP-d2 and cryptate-labeled anti-cAMP antibody, are mixed with cell lysis buffer and added to the assay plate. After 1-hour incubation with these reagents, the assay plate was read on an HTRF-compatible microplate reader (Perkin Elmer EnVision or BMG Pherastar). A cAMP standard curve was included on each assay plate and HTRF emission ratios for test compounds were fit to this curve to generate accurate measures of cAMP levels in each test well.

[1] = tested on: histamine-induced scratching behavior in mice; test: Histamine-induced model for pruritus (Example 6); assay type: in vivo, C57BL/6j male mice; settings: oral administration, histamine s.c. 30 min post-dosing, bouts counted 5-15 min, FIG. 6
Protocol: H3R inhibitors, Compound 3 and Compound 11, were dissolved in 0.5% methylcellulose at the appropriate concentration and 100 μL were administered orally to 8-week-old C57BL/6j male mice. Thirty minutes post-dosing, 25 μL of 40 mg/mL histamine solution was injected subcutaneously at the rostral part of the back. Mice were video recorded and the number of scratching bouts that occurred between 5 and 15 minutes was counted after histamine injection.

| SMILES | IC50 (human H3 receptor) [nM] | histamine-induced scratching behavior (number of scratching bouts) [1] |
| --- | --- | --- |
| C[C@@H]1CCCN1CCc1ccc(-c2ccc(C(=O)O)cc2)cc1 [Compound 1, (R)-4′-(2-(2-Methylpyrrolidin-1-yl)ethyl)biphenyl-4-carboxylic Acid] | 3.8 | – |
| CCOC(=O)C1CCCCC1NC(=O)C1(c2ccc(-c3ccc(CCN4CCC[C@H]4C)cc3)cc2)CCCC1 (stereo in doubt) [Compound 20, (1R,2S)-Ethyl 2-(1-(4′-(2-((R)-2-Methylpyrrolidin-1-yl)ethyl)biphenyl-4-yl)cyclopentanecarboxamido)cyclohexanecarboxylate] | 3 | – |
| C[C@@H]1CCCN1CCc1ccc(-c2ccc(CCn3ncnn3)cc2)cc1 [Compound 8, (R)-2-(2-(4′-(2-(2-Methylpyrrolidin-1-yl)ethyl)biphenyl-4-yl)ethyl)-2H-tetrazole] | 1.2 | – |
| C[C@@H]1CCCN1CCc1ccc(-c2ccc(CC(=O)O)cc2)cc1 [Compound 2, (R)-2-(4′-(2-(2-Methylpyrrolidin-1-yl)ethyl)biphenyl-4-yl)acetic Acid] | 8.1 | – |
| C[C@@H]1CCCN1CCc1ccc(-c2ccc(C3(C(=O)NCCCC(=O)O)CCCC3)cc2)cc1 [Compound 33, (R)-4-(1-(4′-(2-(2-Methylpyrrolidin-1-yl)ethyl)biphenyl-4-yl)cyclopentanecarboxamido)butanoic Acid] | 2.1 | – |
| COC(=O)CCCNC(=O)C1(c2ccc(-c3ccc(CCN4CCC[C@H]4C)cc3)cc2)CCCC1 [Compound 16, (R)-Methyl 4-(1-(4′-(2-(2-Methylpyrrolidin-1-yl)ethyl)biphenyl-4-yl)cyclopentanecarboxamido)butanoate] | 1.5 | – |
| CCOC(=O)CCc1ccc(-c2ccc(CCN3CCC[C@H]3C)cc2)cc1 [Compound 11, (R)-Ethyl 3-(4′-(2-(2-Methylpyrrolidin-1-yl)ethyl)biphenyl-4-yl)propanoate] | 1.8 | effectively inhibit histamine-induced pruritus; also recorded: inhibit histamine-induced scratching behavior |
| COC(=O)C(C)(C)NC(=O)c1ccc(-c2ccc(CCN3CCC[C@H]3C)cc2)cc1 [Compound 38, (R)-Methyl 2-Methyl-2-(4′-(2-(2-methylpyrrolidin-1-yl)ethyl)biphenyl-4-ylcarboxamido)propanoate] | 1.2 | – |
| C[C@@H]1CCCN1CCc1ccc(-c2ccc(CCC(=O)NCC(=O)OC(C)(C)C)cc2)cc1 [Compound 26, (R)-tert-Butyl 2-(3-(4′-(2-(2-Methylpyrrolidin-1-yl)ethyl)biphenyl-4-yl)propanamido)acetate] | 3.8 | – |
| COC(=O)CNC(=O)CCc1ccc(-c2ccc(CCN3CCC[C@H]3C)cc2)cc1 [Compound 24, (R)-Methyl 2-(3-(4′-(2-(2-Methylpyrrolidin-1-yl)ethyl)biphenyl-4-yl)propanamido)acetate] | 0.99 | – |
| C[C@@H]1CCCN1CCc1ccc(-c2ccc(CCc3nnn[nH]3)cc2)cc1 [Compound 44, (R)-5-(2-(4′-(2-(2-Methylpyrrolidin-1-yl)ethyl)biphenyl-4-yl)ethyl)-1H-tetrazole] | 6.9 | – |
| CCOC(=O)C1CCN(C(=O)CCc2ccc(-c3ccc(CCN4CCC[C@H]4C)cc3)cc2)CC1 [Compound 35, (R)-Ethyl 1-(3-(4′-(2-(2-Methylpyrrolidin-1-yl)ethyl)biphenyl-4-yl)propanoyl)piperidine-4-carboxylate] | 0.96 | – |
| C[C@@H]1CCCN1CCc1ccc(-c2ccc(CCC(=O)NC(C)(C)C(=O)OC(C)(C)C)cc2)cc1 [Compound 12, (R)-tert-Butyl 2-Methyl-2-(3-(4′-(2-(2-methylpyrrolidin-1-yl)ethyl)biphenyl-4-yl)propanamido)propanoate] | 0.95 | – |
| COC(=O)CNC(=O)C1(c2ccc(-c3ccc(CCN4CCC[C@H]4C)cc3)cc2)CCCC1 [Compound 27, (R)-Methyl 2-(1-(4′-(2-(2-Methylpyrrolidin-1-yl)ethyl)biphenyl-4-yl)cyclopentanecarboxamido)acetate] | 1.9 | – |
| C[C@H](NC(=O)CCc1ccc(-c2ccc(CCN3CCC[C@H]3C)cc2)cc1)C(=O)O [Compound 18, (S)-2-(3-(4′-(2-((R)-2-methylpyrrolidin-1-yl)ethyl)biphenyl-4-yl)propanamido)propanoic acid] | 0.79 | – |
| CCOC(=O)COCc1ccc(-c2ccc(CCN3CCC[C@H]3C)cc2)cc1 [Compound 4, (R)-Ethyl 2-((4′-(2-(2-Methylpyrrolidin-1-yl)ethyl)biphenyl-4-yl)methoxy)acetate] | 0.67 | – |
| C[C@@H]1CCCN1CCc1ccc(-c2ccc(CCn3cnnn3)cc2)cc1 [Compound 7, (R)-1-(2-(4′-(2-(2-Methylpyrrolidin-1-yl)ethyl)biphenyl-4-yl)ethyl)-1H-tetrazole] | 0.93 | – |
| C[C@@H]1CCCN1CCc1ccc(-c2ccc(CCCC(=O)O)cc2)cc1 [Compound 45, (R)-4-(4′-(2-(2-Methylpyrrolidin-1-yl)ethyl)biphenyl-4-yl)butanoic Acid] | 0.97 | – |
| C[C@@H]1CCCN1CCc1ccc(-c2ccc(COCC(=O)O)cc2)cc1 [Compound 5, (R)-2-((4′-(2-(2-Methylpyrrolidin-1-yl)ethyl)biphenyl-4-yl)methoxy)acetic Acid] | 5.5 | – |
| C[C@H](NC(=O)CCc1ccc(-c2ccc(CCN3CCC[C@H]3C)cc2)cc1)C(=O)OC(C)(C)C [Compound 13, (S)-tert-Butyl 2-(3-(4′-(2-((R)-2-Methylpyrrolidin-1-yl)ethyl)biphenyl-4-yl)propanamido)propanoate] | 2.1 | – |
| COC(=O)CCc1ccc(-c2ccc(CCN3CCC[C@H]3C)cc2)cc1 [Compound 9, (R)-Methyl 3-(4′-(2-(2-Methylpyrrolidin-1-yl)ethyl)biphenyl-4-yl)propanoate] | 1.1 | – |
| COC(=O)C1(c2ccc(-c3ccc(CCN4CCC[C@H]4C)cc3)cc2)CCCC1 [Compound 25, (R)-Methyl 1-(4′-(2-(2-Methylpyrrolidin-1-yl)ethyl)biphenyl-4-yl)cyclopentanecarboxylate] | 3.3 | – |
| C[C@@H]1CCCN1CCc1ccc(-c2ccc(C(C)(C)C(=O)O)cc2)cc1 [Compound 10, (R)-2-Methyl-2-(4′-(2-(2-methylpyrrolidin-1-yl)ethyl)biphenyl-4-yl)propanoic Acid] | 3.1 | – |
| C[C@@H]1CCCN1CCc1ccc(-c2ccc(C(=O)NCCC(=O)O)cc2)cc1 [Compound 43, (R)-3-(4′-(2-(2-Methylpyrrolidin-1-yl)ethyl)biphenyl-4-ylcarboxamido)propanoic Acid] | 2.5 | – |
| C[C@@H]1CCCN1CCc1ccc(-c2ccc(Cc3nnn[nH]3)cc2)cc1 [Compound 37, (R)-5-((4′-(2-(2-Methylpyrrolidin-1-yl)ethyl)biphenyl-4-yl)methyl)-1H-tetrazole] | 0.78 | – |
